Peptide text beside a SMILES is read from it.
Tests used:
Plasma stability = type: in vitro ADME, SD rat
[1] = Plasma and brain levels in male CD-1 mice after a single IP dose; type: in vivo, CD-1 mouse; conditions: for Tissue Homogenate Conc / Plasma Conc: male CD-1 mice, IP 10 mg/kg single
[2] = male, CD-1, mouse, brain homogenate, ip, 10 mg/kg
[3] = male, CD-1, mouse, brain, ip, 10 mg/kg
[4] = male, CD-1, mouse, plasma, ip, 10 mg/kg

CC(C)[C@@H](NC(=O)[C@H](N)Cc1ccc(O)cc1)C(=O)N[C@H](CC(=O)O)C(=O)N[C@H](CCCCN)C(=O)N[C@H](CCCNC(=N)N)C(=O)O [FC-12738, (D-Tyr)-(D-Val)-(D-Asp)-(D-Lys)-(D-Arg)] (HELM PEPTIDE1{[dY].[dV].[dD].[dK].[dR]}$$$$V2.0)
half-life (Plasma stability; SD rat plasma, 2.00 μM, 37.0 °C, up to 120 min): > 372.7 min | remaining at 10 min, 2 μM (Plasma stability; SD, rat, plasma): 104% | remaining at 0.5 h, 2 μM (Plasma stability; SD, rat, plasma): 102% | remaining at 1 h, 2 μM (Plasma stability; SD, rat, plasma): 113% | remaining at 2 h, 2 μM (Plasma stability; SD, rat, plasma): 104% | Tissue Homogenate Conc ([1]; brain homogenate, 0.5 h, animal 2): 17.6 ng/mL | Tissue Homogenate Conc ([1]; brain homogenate, 0.5 h, animal 3): 14.1 ng/mL | Tissue Homogenate Conc ([1]; brain homogenate, 1 h, animal 1): 8.28 ng/mL | Tissue Homogenate Conc ([1]; brain homogenate, 1 h, animal 2): 10.1 ng/mL | Tissue Homogenate Conc ([1]; brain homogenate, 1 h, animal 3): 8.41 ng/mL | Tissue Homogenate Conc ([1]; brain homogenate, 2 h, animal 1): 6.96 ng/mL | Tissue Homogenate Conc ([1]; brain homogenate, 2 h, animal 2): 5.73 ng/mL | Tissue Homogenate Conc ([1]; brain homogenate, 2 h, animal 3): 7.47 ng/mL | Tissue Homogenate Conc ([1]; brain homogenate, 4 h, animal 1): 1.76 ng/mL | Tissue Homogenate Conc ([1]; brain homogenate, 4 h, animal 2): 1.22 ng/mL | Tissue Homogenate Conc ([1]; brain homogenate, 4 h, animal 3): 1.06 ng/mL | level at 0.5 h [1, 2]: 16.4 ng/mL | level at 1 h [1, 2]: 8.93 ng/mL | level at 2 h [1, 2]: 6.72 ng/mL | level at 4 h [1, 2]: 1.35 ng/mL | tissue level at time at 0.5 h [1, 3]: 65.5 ng/g | tissue level at time at 1 h [1, 3]: 35.7 ng/g | tissue level at time at 2 h [1, 3]: 26.9 ng/g | tissue level at time at 4 h [1, 3]: 5.39 ng/g | level at 0.5 h [1, 4]: 2090 ng/mL | level at 1 h [1, 4]: 1210 ng/mL | level at 2 h [1, 4]: 627 ng/mL | level at 4 h [1, 4]: 84.1 ng/mL | level at 8 h [1, 4]: 16.7 ng/mL | Plasma Conc ([1]; plasma, 0.5 h, animal 1, LC-MS/MS): 2230 ng/mL | Plasma Conc ([1]; plasma, 0.5 h, animal 2): 1790 ng/mL | Plasma Conc ([1]; plasma, 0.5 h, animal 3): 2260 ng/mL | Plasma Conc ([1]; plasma, 1 h, animal 1): 885 ng/mL | Plasma Conc ([1]; plasma, 1 h, animal 2): 1320 ng/mL | Plasma Conc ([1]; plasma, 1 h, animal 3): 1420 ng/mL | Plasma Conc ([1]; plasma, 2 h, animal 1): 543 ng/mL | Plasma Conc ([1]; plasma, 2 h, animal 2): 592 ng/mL | Plasma Conc ([1]; plasma, 2 h, animal 3): 745 ng/mL | Plasma Conc ([1]; plasma, 4 h, animal 1): 97.9 ng/mL | Plasma Conc ([1]; plasma, 4 h, animal 2): 74.6 ng/mL | Plasma Conc ([1]; plasma, 4 h, animal 3): 79.8 ng/mL | Plasma Conc ([1]; plasma, 8 h, animal 1): 19.1 ng/mL | Plasma Conc ([1]; plasma, 8 h, animal 2): 17.5 ng/mL | Plasma Conc ([1]; plasma, 8 h, animal 3): 13.4 ng/mL

Reference: publication doi:10.1101/2023.04.18.537371v1 (bioRxiv, 2023)
